In PMC9666779 (Frontiers in Pharmacology, 2022):
Bridge positions count the residues as written; N and C are the ends. Square brackets hold non-standard residues; d marks the D form. Peptide text beside a SMILES is read from it.

Legend:
NRP1 = NRP1 (Homo sapiens, UniProt O14786); test: biochemical; type: binding
Mpro = Mpro (Severe acute respiratory syndrome coronavirus 2, UniProt P0DTD1); test: biochemical; type: binding, SARS-CoV-2
SARS-CoV-2 Mpro = SARS-CoV-2 Mpro (Severe acute respiratory syndrome coronavirus 2, UniProt P0DTD1); test: biochemical
Procedure: According to a previously reported method ([Du et al., 2021]), the FRET-based enzymatic assay was used to evaluate the inhibitory effects of the peptides on Mpro. First, the Mpro (250 nM at a final concentration) was incubated with various concentrations of tested peptides in 90 μL reaction buffer for 30 min in a black 96-well plate, and then the reaction was initiated by adding 10 μL of […] FRET-based peptide substrate (Dabcyl-KTSAVLQ/SGFRKME-Edans). The reaction was monitored for 1 h, and the initial velocity was calculated using the data by linear regression. The IC50 was calculated by plotting the initial velocity against various concentrations of testing inhibitor by using a four parameters dose−response curve in Prism software.

FHs 74 Int cells = test: MTT cytotoxicity assay, FHs 74 Int cells; type: cell-based, human; details: 50 μM, 48 h
Procedure: According to a previously reported method ([Zheng et al., 2021b]), 293T, A549 and FHs 74 Int cells were plated in 96-well plates at a density of 5 × 10^4 cells per well. After incubation for 24 h, the peptide solution was added into the plates and the cells were incubated for 48 h. After that, the incubation medium was removed, the cells were washed with PBS at pH 7.4, and then MTT stock solution (0.5 mg/ml) was added into each well and incubated for another 4 h. The medium was removed by centrifugation, and the precipitated cells were lysed using DMSO. After the purple crystals were completely dissolved, the cell viability was calculated according to the absorbance signals measured by a microplate reader at the wavelength of 570 nm.
Figure S2. The cytotoxicity effects of MNs 1-4 on FHs 74 Int cells detected using MTT assay. Cells were treated with the concentration of 50 μM of peptides for 48 h. The results are represented as mean ± SD (n = 3).

Chain of NRP1 (O14786 273-427): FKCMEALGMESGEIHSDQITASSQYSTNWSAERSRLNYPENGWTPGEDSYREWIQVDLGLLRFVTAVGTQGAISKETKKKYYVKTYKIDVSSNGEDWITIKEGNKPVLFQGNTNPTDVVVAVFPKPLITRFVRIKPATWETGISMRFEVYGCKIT

Row | SMILES | Kd (NRP1) [nM] | Mpro, Kd (Mpro; MST, mean ± SD (n = 3)) | Kd (Mpro) [nM] | IC50 (SARS-CoV-2 Mpro) [nM] | viability of FHs 74 Int cells (cytotoxicity) (FHs 74 Int cells)
1 | CC(C)C[C@@H]1NC(=O)[C@H](CCC(N)=O)NC(=O)[C@H](CCCNC(=N)N)NC(=O)[C@H](C)NC(=O)[C@H](CCCCN)NC(=O)[C@@H]2CSSC[C@@H](C(=O)N[C@@H](CC(=O)O)C(=O)N[C@@H](CCCCN)C(=O)N3CCC[C@H]3C(=O)N[C@@H](CCCNC(=N)N)C(=O)N[C@@H](CCCNC(=N)N)C(=O)O)NC(=O)[C@H](CCCNC(=N)N)NC(=O)[C@H](CSSC[C@H](NC(=O)[C@@H](N)CO)C(=O)N[C@@H](CCCCN)C(=O)N[C@@H](CC(N)=O)C(=O)N[C@@H]([C@@H](C)O)C(=O)N[C@@H](CC(=O)O)C(=O)N[C@@H](CO)C(=O)N[C@@H](CCCNC(=N)N)C(=O)N2)NC(=O)[C@H]([C@@H](C)O)NC(=O)[C@H](CCCNC(=N)N)NC(=O)[C@H](CCC(=O)O)NC(=O)[C@H](CC(N)=O)NC(=O)[C@H](CC(C)C)NC(=O)[C@H](CCC(=O)O)NC1=O [EG3287, reference compound] (H-SCKNTDSRCKARQLELNERTCRCDKPRR-OH; disulfide 2-21, 9-23; N-terminus assumed) | 912 ± 10.6 | no binding affinity |  |  | 
2 | CC(C)C[C@@H]1NC(=O)[C@H](C(C)C)NC(=O)[C@H](C)NC(=O)[C@H](Cc2ccccc2)NC(=O)[C@H](CCC(N)=O)NC(=O)[C@H](CC(C)C)NC(=O)[C@@H](Cc2ccccc2)NC(=O)[C@H](N)CSSC[C@H](C(=O)NCC(=O)NCC(=O)NCC(=O)N[C@@H](CCCNC(=N)N)C(=O)N2CCC[C@H]2C(=O)N[C@@H](CCCNC(=N)N)C(=O)N[C@@H](CCCNC(=N)N)C(=O)NCC(=O)N[C@@H](CCCNC(=N)N)C(=O)O)NC(=O)[C@H](CCC(N)=O)NC(=O)[C@H](CCCCN)NC(=O)[C@H](CCCNC(=N)N)NC(=O)[C@H](CCCNC(=N)N)NC(=O)[C@H](Cc2c[nH]cn2)NC(=O)[C@H](CCCNC(=N)N)NC1=O [MN-1] (H-[dC][dF]LQFAVLRHRRKQ[dC]GGGRPRRGR-OH; disulfide 1-15) | 95.6 ± 4.1 |  | 53.4 ± 2.5 | 56.3 ± 3.9 | 
3 | CC(C)C[C@@H]1NC(=O)[C@H](C(C)C)NC(=O)[C@H](C)NC(=O)[C@H](Cc2ccc(O)cc2)NC(=O)[C@H](CCC(N)=O)NC(=O)[C@H](CC(C)C)NC(=O)[C@@H](Cc2ccccc2)NC(=O)[C@H](N)CSSC[C@H](C(=O)NCC(=O)NCC(=O)NCC(=O)N[C@@H](CCCNC(=N)N)C(=O)N2CCC[C@H]2C(=O)N2CCC[C@H]2C(=O)N[C@@H](CCCNC(=N)N)C(=O)N[C@@H](CCCNC(=N)N)C(=O)N[C@@H](C)C(=O)N[C@@H](CCCNC(=N)N)C(=O)O)NC(=O)[C@H](CCC(=O)O)NC(=O)[C@H](CCCNC(=N)N)NC(=O)[C@H](CCCNC(=N)N)NC(=O)[C@H](CCCCN)NC(=O)[C@H](CCC(N)=O)NC(=O)[C@H](CCCCN)NC1=O [MN-2] (H-[dC][dF]LQYAVLKQKRRE[dC]GGGRPPRRAR-OH; disulfide 1-15) | 12.3 ± 1.2 |  | 18.2 ± 1.9 | 20.6 ± 2.2 | undetectable cytotoxicity
4 | CC[C@@H](C)[C@H]1NC(=O)[C@H](N)CSSC[C@H](C(=O)NCC(=O)NCC(=O)NCC(=O)N[C@@H](CCCNC(=N)N)C(=O)NCC(=O)N[C@@H](CCC(=O)O)C(=O)N[C@@H](CCCNC(=N)N)C(=O)N2CCC[C@H]2C(=O)N2CCC[C@H]2C(=O)N[C@@H](CCCNC(=N)N)C(=O)O)NC(=O)[C@H](CCCCN)NC(=O)[C@H](CCCNC(=N)N)NC(=O)[C@H](CCC(N)=O)NC(=O)[C@H](CCCNC(=N)N)NC(=O)[C@H](CCCCN)NC(=O)[C@H](CCCCN)NC(=O)[C@H](Cc2ccccc2)NC(=O)[C@H](C(C)C)NC(=O)[C@H](C)NC(=O)[C@H](CC(C)C)NC(=O)[C@H](CCC(N)=O)NC(=O)[C@H](CC(C)C)NC1=O [MN-3] (H-[dC][dI]LQLAVFKKRQRK[dC]GGGRGERPPR-OH; disulfide 1-15) | 110 ± 6.7 |  | 206 ± 8.8 | 209 ± 7.6 | 
5 | CC(C)C[C@@H]1NC(=O)[C@H](C(C)C)NC(=O)[C@H](C)NC(=O)[C@H](Cc2ccccc2)NC(=O)[C@H](CCC(N)=O)NC(=O)[C@H](CC(C)C)NC(=O)[C@@H](Cc2c[nH]c3ccccc23)NC(=O)[C@H](N)CSSC[C@H](C(=O)NCC(=O)NCC(=O)N[C@@H](CCCNC(=N)N)C(=O)N2CCC[C@H]2C(=O)N[C@@H](C)C(=O)N[C@@H](CCCNC(=N)N)C(=O)N2CCC[C@H]2C(=O)N[C@@H](C)C(=O)N[C@@H](CCCNC(=N)N)C(=O)O)NC(=O)[C@H](C)NC(=O)[C@H](CCC(N)=O)NC(=O)[C@H](CCCCN)NC(=O)[C@H](CCCCN)NC(=O)[C@H](CCC(=O)O)NC(=O)[C@H](CCCNC(=N)N)NC1=O [MN-4] (H-[dC][dW]LQFAVLREKKQA[dC]GGRPARPAR-OH; disulfide 1-15) | 15.1 ± 3.3 |  | 116 ± 5.5 | 119 ± 6.1 | 
